This note sets out measurements from patent publication US20100009907A1, “Glucagon-Like Peptides and Uses Thereof” (AMYLIN PHARMACEUTICALS, INC., priority 2006, published 2010).

Usually EC50 stands for the midpoint of the concentration-response curve. A low value points to greater potency. The IC50 is the midpoint of a concentration-inhibition curve.

Where no end group is shown, it is not given here.

Data set [1] has as its target T1, rat thyroid carcinoma 6-23 clone 6 cells expressing endogenous GLP-1 receptors (Rattus norvegicus, UniProt P32301).
T1 construct: rat thyroid carcinoma 6-23 clone 6 cells or RINm5F insulinoma cells expressing endogenous GLP-1 receptors; endogenous in cells; host or cells: rat thyroid carcinoma 6-23 clone 6 cells
T1 sequence (P32301 22-463): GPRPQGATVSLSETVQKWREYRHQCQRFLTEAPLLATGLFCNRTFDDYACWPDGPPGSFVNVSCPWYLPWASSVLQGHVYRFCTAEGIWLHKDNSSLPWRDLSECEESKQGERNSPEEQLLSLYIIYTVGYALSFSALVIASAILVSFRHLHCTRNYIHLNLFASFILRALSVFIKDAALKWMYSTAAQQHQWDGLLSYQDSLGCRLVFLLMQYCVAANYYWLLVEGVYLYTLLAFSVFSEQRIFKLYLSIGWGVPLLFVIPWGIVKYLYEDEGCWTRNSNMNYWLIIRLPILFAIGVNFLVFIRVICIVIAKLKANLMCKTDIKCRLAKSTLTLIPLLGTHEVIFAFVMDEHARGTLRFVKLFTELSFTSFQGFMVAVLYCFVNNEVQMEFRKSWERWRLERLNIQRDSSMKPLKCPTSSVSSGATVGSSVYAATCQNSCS
Description: GLP-1 cAMP (6-23) cyclase assay. It is filed as cell-based. Here is the method: (§1) Cells, and peptide or buffer solutions are combined in 384-well plates and incubated at room temperature in air for 30-minutes. cAMP content can then be measured according to recommendations in the Perkin-Elmer AlphaScreen™ kit instructions using the Perkin Elmer Fusion fluorimeter and data are analyzed using XLfit software (IDBS).

Data set [2] can be described thus: Acute food intake assay (FI Assay). It is filed as in vivo, NIH/Swiss mice. As to conditions: 1000 μg/kg intraperitoneal, relative to vehicle. Here is the method: The effect of various test peptides on food intake is investigated using an acute food intake assay. This assay measures food consumption in lean, group-housed, overnight-fasted NIH/Swiss mice. Twelve mice are housed three to a cage. […] Decreased, as well as increased, food intake is measured. Testing of the various doses of the polypeptide generates ED50s.
Female NIH/Swiss mice (8-24 weeks old) are group housed with a 12:12 hour light:dark cycle with lights on at 0600. Water and a standard pelleted mouse chow diet are available ad libitum, except as noted. Animals are fasted starting at approximately 1500 hrs, 1 day prior to experiment. The morning of the experiment, animals are divided into experimental groups.
At time=0 min, all animals are given an intraperitoneal injection of vehicle or compound in an amount ranging from about 63 to 1000 μg/kg, and immediately given a pre-weighed amount (10-15 g) of the standard chow.

Data set [3] concerns the target T2, GLP-1 receptor (RINm5F cell membranes) (Rattus norvegicus, UniProt P32301).
T2 construct: RINm5F insulinoma cells expressing endogenous GLP-1 receptors; endogenous in cells; host or cells: RINm5F cell membranes
T2 sequence (P32301 22-463): T1 sequence (P32301 22-463)
The experiment in a line: GLP-1 receptor binding assay (GLP RBA), [125I]GLP-1 displacement. The following applies: [125I]GLP-1 tracer. Here is the method:
Reaction mixtures are filtered through glass filter pads presoaked with 0.3% PEI solution and rinsed with ice-cold phosphate buffered saline. Bound counts are determined using a scintillation counter. Binding affinities are calculated using GraphPad Prism software (GraphPad Software, Inc., San Diego, Calif.).

Another data set concerns the target DPP-IV (Homo sapiens, UniProt P27487). Description: Stability by DPP IV assay. It is filed as in vitro ADME. The following applies: isolated DPP-IV enzyme, DPP-IV approximately 5 mUnit, 37° C., intact peptide remaining, read-out: DDP IV % Stable.
For data set [4], the target named is T3, RINm5f cells expressing endogenous GLP-1, calcitonin, and GIP receptors (Rattus norvegicus, UniProt P32301).
T3 construct: RINm5f cells expressing endogenous GLP-1, calcitonin, and GIP receptors; endogenous in cells; host or cells: RINm5f cells
T3 sequence (P32301 22-463): T1 sequence (P32301 22-463)
The experiment in a line: GLP/GIP/CT cAMP (RIN) assay. Format: cell-based. Here is the method:
In addition, receptor binding can be measured using cells prepared from confluent cultures of RINm5f cells expressing endogenous GLP-1, calcitonin, and GIP receptors. Cells, and peptide or buffer solution are combined in 384-well plates. After a 30-minute incubation at room temperature in air, cAMP content is measured as recommended in the Perkin-Elmer AlphaScreen kit instructions.
as §1

DPP-IV, sequence (P27487 whole entry, species assumed): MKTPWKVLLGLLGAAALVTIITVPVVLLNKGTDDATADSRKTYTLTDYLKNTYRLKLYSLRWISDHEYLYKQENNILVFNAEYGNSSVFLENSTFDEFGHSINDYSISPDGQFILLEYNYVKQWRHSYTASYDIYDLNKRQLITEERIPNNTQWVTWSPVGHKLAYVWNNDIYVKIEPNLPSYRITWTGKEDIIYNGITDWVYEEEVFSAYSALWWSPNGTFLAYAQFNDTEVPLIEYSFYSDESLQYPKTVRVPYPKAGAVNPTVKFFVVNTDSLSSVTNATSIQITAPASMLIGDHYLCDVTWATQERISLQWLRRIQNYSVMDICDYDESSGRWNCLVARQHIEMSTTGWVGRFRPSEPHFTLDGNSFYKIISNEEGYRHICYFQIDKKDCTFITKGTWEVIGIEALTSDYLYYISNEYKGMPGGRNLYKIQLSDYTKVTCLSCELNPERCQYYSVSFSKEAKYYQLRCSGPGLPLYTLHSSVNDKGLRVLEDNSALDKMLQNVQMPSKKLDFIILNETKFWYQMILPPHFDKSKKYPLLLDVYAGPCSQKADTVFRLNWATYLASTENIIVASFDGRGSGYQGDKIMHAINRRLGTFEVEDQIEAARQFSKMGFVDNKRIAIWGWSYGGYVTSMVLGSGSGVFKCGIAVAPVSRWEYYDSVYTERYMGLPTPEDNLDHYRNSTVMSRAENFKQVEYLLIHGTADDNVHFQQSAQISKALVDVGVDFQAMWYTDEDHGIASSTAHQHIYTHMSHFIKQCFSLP
Description for DPP-IV: DPP-IV, approximately 5 mUnit in 5 mM Tris-HCl was added to 625 μL HEPES buffer (25 mM) in a 1.5 mL polypropylene microcentrifuge tube with an O-ring seal to prevent evaporation. Peptide stock solution, 70 μL (300 μM in 50% acetonitrile) was carefully added to this and mixed by brief manual shaking. Next, the solution was aliquoted into six tubes (6×100 μl. One tube contained 200 μL Stop solution (50% acetonitrile and 1% formic acid) that was used to determine the initial concentration of peptide (t=0). All six aliquots were then incubated at 37° C. while mixing at 500 RPM in the Vortemp 56 incubator. The digestion was stopped at 10 min intervals by adding 200 μL stop solution. The tube was then placed back into the incubator for 50 min. The solution was centrifuged at 19000×g for 10 minutes at room temperature. The supernatant was removed and 200 μL supernatant was transferred to an autosampler vials for analysis.
The most intense ion of the intact peptide was monitored to determine the rates of degradation and to quantify the amount of intact peptide remaining in the solution.

“HAEGTYTNDVTEYLEEAAKEFIEWLIKGKPKKIRYS-NH2 (C-terminus assumed) [compound 30]”: the EC50 in data set [1] was above 1000 nM.

In data set [1], “HAEGTYTNDTEYLEEKAAKEFIEWLIKGKPKKIRYS-NH2 (C-terminus assumed) [compound 39]” returned a 50% effective concentration (EC50) above 1000 nM.

Take “HAEFTYTNDVTEYLEEKAAKEFIEWLIKGGPSSGAPPPS-NH2 [compound 19]”: in data set [2], the “Food Intake % inhibition 30 min” value is reported as 51%, the “Food Intake % inhibition 60 min” value stood at 67%, the “Food Intake % inhibition 120 min” value was found to be 75% and the “Food Intake % inhibition 180 min” value worked out at 77%.

`CC[C@H](C)[C@H](NC(=O)[C@H](CC(C)C)NC(=O)[C@H](Cc1c[nH]c2ccccc12)NC(=O)[C@H](CC(=O)O)NC(=O)[C@@H](NC(=O)[C@H](Cc1ccccc1)NC(=O)[C@H](CCC(=O)O)NC(=O)[C@H](CCCCN)NC(=O)[C@H](C)NC(=O)[C@H](C)NC(=O)[C@H](CCCCN)NC(=O)[C@H](CCC(=O)O)NC(=O)[C@H](CC(=O)O)NC(=O)[C@H](CC(C)C)NC(=O)[C@H](CCC(N)=O)NC(=O)[C@H](CCC(N)=O)NC(=O)[C@@H](NC(=O)[C@@H](NC(=O)[C@H](CC(=O)O)NC(=O)[C@H](CO)NC(=O)[C@@H](NC(=O)[C@H](Cc1ccccc1)NC(=O)[C@@H](NC(=O)CNC(=O)[C@H](CCC(=O)O)NC(=O)[C@H](C)NC(=O)[C@@H](N)Cc1c[nH]cn1)[C@@H](C)O)[C@@H](C)O)C(C)C)[C@@H](C)O)[C@@H](C)CC)C(=O)N[C@@H](CC(N)=O)C(=O)NCC(=O)NCC(=O)N1CCC[C@H]1C(=O)N[C@@H](CO)C(=O)N[C@@H](CCCCN)C(=O)N[C@@H](CCC(=O)O)C(=O)N[C@H](C(=O)N[C@H](C(=O)N[C@@H](CO)C(=O)O)[C@@H](C)CC)[C@@H](C)CC` [compound 1]: in data set [3], the IC50 was 3 nM. For the same molecule, the remaining at 50 min, 30 µM on DPP-IV was 99%. Moreover, in data set [2], the “Food Intake % inhibition 30 min” value is reported as 56%, the “Food Intake % inhibition 60 min” value is recorded as 69%, the “Food Intake % inhibition 120 min” value was 73% and the “Food Intake % inhibition 180 min” value turned out to be 72%. Further, in data set [4], the “GLP/GIP/CT cAMP(RIN) EC50” value is reported as 1.9 nM.

`CC[C@H](C)[C@H](NC(=O)[C@H](Cc1ccccc1)NC(=O)[C@H](CCC(=O)O)NC(=O)[C@H](CCCCN)NC(=O)[C@H](C)NC(=O)[C@H](C)NC(=O)[C@H](CCC(N)=O)NC(=O)CNC(=O)[C@H](CCC(=O)O)NC(=O)[C@H](CC(C)C)NC(=O)[C@H](Cc1ccc(O)cc1)NC(=O)[C@H](CO)NC(=O)[C@H](CO)NC(=O)[C@@H](NC(=O)[C@H](CC(=O)O)NC(=O)[C@H](CO)NC(=O)[C@@H](NC(=O)[C@H](Cc1ccccc1)NC(=O)[C@@H](NC(=O)CNC(=O)[C@H](CCC(=O)O)NC(=O)[C@H](C)NC(=O)[C@@H](N)Cc1c[nH]cn1)[C@@H](C)O)[C@@H](C)O)C(C)C)C(=O)N[C@@H](C)C(=O)N[C@@H](Cc1c[nH]c2ccccc12)C(=O)N[C@@H](CC(C)C)C(=O)N[C@H](C(=O)N[C@@H](CCCCN)C(=O)NCC(=O)N[C@@H](CCCNC(=N)N)C(N)=O)C(C)C` [compound 3]: in data set [2], the “Food Intake % inhibition 30 min” value was 13%, the “Food Intake % inhibition 60 min” value stood at 13% and the “Food Intake % inhibition 120 min” value is recorded as 11%.

In turn, “EGTYTNDVTEYLEEKAAKEFIEWLIKGKPKKIRYS-NH2 (C-terminus assumed) [compound 37]” showed an IC50 in data set [3] of 22 nM. Further, the EC50 in data set [1] is above 1000 nM.

`CC[C@H](C)[C@H](NC(=O)[C@H](CC(C)C)NC(=O)[C@H](Cc1c[nH]c2ccccc12)NC(=O)[C@H](CCC(=O)O)NC(=O)[C@@H](NC(=O)[C@H](Cc1ccccc1)NC(=O)[C@H](CCC(=O)O)NC(=O)[C@H](CCCCN)NC(=O)[C@H](C)NC(=O)[C@H](C)NC(=O)[C@H](CCCCN)NC(=O)[C@H](CCC(=O)O)NC(=O)[C@H](CCC(=O)O)NC(=O)[C@H](CC(C)C)NC(=O)[C@H](Cc1ccc(O)cc1)NC(=O)[C@H](CCC(=O)O)NC(=O)[C@@H](NC(=O)[C@@H](NC(=O)[C@H](CC(=O)O)NC(=O)[C@H](CC(N)=O)NC(=O)[C@@H](NC(=O)[C@H](Cc1ccc(O)cc1)NC(=O)[C@@H](NC(=O)CNC(=O)[C@H](CCC(=O)O)NC(=O)[C@H](C)NC(=O)[C@@H](N)Cc1c[nH]cn1)[C@@H](C)O)[C@@H](C)O)C(C)C)[C@@H](C)O)[C@@H](C)CC)C(=O)N[C@@H](CCCCN)C(=O)NCC(=O)N[C@@H](CCCCN)C(=O)N1CCC[C@H]1C(=O)N[C@@H](CCCCN)C(=O)N[C@@H](CCCCN)C(=O)N[C@H](C(=O)N[C@@H](CCCNC(=N)N)C(=O)N[C@@H](Cc1ccc(O)cc1)C(=O)N[C@@H](CO)C(N)=O)[C@@H](C)CC` [compound 2]: the IC50 in data set [3] stood at 0.1 nM. Moreover, in data set [4], the “GLP/GIP/CT cAMP(RIN) EC50” value turned out to be 0.36 nM.

Consider `CC[C@H](C)[C@H](NC(=O)[C@H](CC(C)C)NC(=O)[C@H](Cc1c[nH]c2ccccc12)NC(=O)[C@H](CCC(=O)O)NC(=O)[C@@H](NC(=O)[C@H](Cc1ccccc1)NC(=O)[C@H](CCC(=O)O)NC(=O)[C@H](CCCCN)NC(=O)[C@H](C)NC(=O)[C@H](C)NC(=O)[C@H](CCCCN)NC(=O)[C@H](CCC(=O)O)NC(=O)[C@H](CCC(=O)O)NC(=O)[C@H](CC(C)C)NC(=O)[C@H](Cc1ccc(O)cc1)NC(=O)[C@H](CCC(=O)O)NC(=O)[C@@H](NC(=O)[C@@H](NC(=O)[C@H](CC(=O)O)NC(=O)[C@H](CC(N)=O)NC(=O)[C@@H](NC(=O)[C@H](Cc1ccc(O)cc1)NC(=O)[C@@H](NC(=O)CNC(=O)[C@H](CCC(=O)O)NC(=O)[C@H](C)NC(=O)[C@@H](N)Cc1c[nH]cn1)[C@@H](C)O)[C@@H](C)O)C(C)C)[C@@H](C)O)[C@@H](C)CC)C(N)=O` [compound 42], for which the EC50 in data set [1] amounted to 0.22 nM.
